In brackets after ≈: the same amount, converted by molar mass.
How the values were obtained:
[1] = tested on: Staphylococcus aureus MRSA-032; test: MIC test (agar dilution); format: cell-based; settings: Mueller Hinton agar, 24 h at 35° C.
Description: The in vitro MIC methods of test compounds were determined essentially as described in WO 95/25106, U.S. Pat. No. 5,668,286 and EP 0 750 618 B1.
Overnight grown cultures of MRSA-032 organisms in Tryptic Soya broth were diluted in Mueller Hinton Broth to give optical density matching with MacFarland tube 0.5 standard. Cultures were further diluted 1:10 in Mueller Hinton broth. Using Denley's multipoint inoculator, 10^4 cells were deposited on Mueller Hinton agar (Difco) containing range of 2 fold dilutions of test compounds. […] MIC is defined as minimum drug concentration that inhibits test organisms.

[2] = tested on: Streptococcus pneumoniae ATCC 49619; test: MIC test (agar dilution); format: cell-based; settings: Mueller Hinton agar, 24 h at 35° C.
[3] = tested on: Staphylococcus aureus ATCC 29213; test: MIC test (agar dilution); format: cell-based; settings: Mueller Hinton agar, 24 h at 35° C.
[4] = tested on: Staphylococcus aureus STA-014; test: MIC test (agar dilution); format: cell-based; settings: Mueller Hinton agar, 24 h at 35° C.
[5] = tested on: Streptococcus pneumoniae ATCC 6303; test: MIC test (agar dilution); format: cell-based; settings: Mueller Hinton agar, 24 h at 35° C.
[6] = tested on: Streptococcus agalactiae ATCC 13813; test: MIC test (agar dilution); format: cell-based; settings: Mueller Hinton agar, 24 h at 35° C.
[7] = tested on: Staphylococcus aureus Smith; test: MIC test (agar dilution); format: cell-based; settings: Mueller Hinton agar, 24 h at 35° C.
[8] = tested on: Streptococcus group B ATCC 12386; test: MIC test (agar dilution); format: cell-based; settings: Mueller Hinton agar, 24 h at 35° C.
[9] = Oral pharmacokinetic study in dog, serum concentrations by HPLC; format: in vivo; set-up: Serum concentration: unit not given here; settings: for Serum concentration: dog, 15 mg/kg p.o
Description: Oral (15 mg/kg p.o) pharmacokinetic studies were done in dog. Blood samples were collected at time points of 0, 0.08 (not for oral), 0.25, 0.50, 1.0, 1.5, 2.0, 3.0, 4.0, 5.0, 6.0, 8.0, 10.0, 12.0 and 24.0 h. To facilitate IV dosing and collection of blood samples, the dogs were implanted with cannula in cephalic vein. Serum obtained from blood samples was used for HPLC-based analysis.
Serum samples were extracted by solid phase extraction technique using Water's OASIS HLB cartridges. An HPLC-Diode array detection system was used for analysis. Prepared samples were chromatographed on a YMC-AM reversed phase column (150×4.6 mm ID; 5 μm) using an isocratic mobile phase acetate buffer (50 mmol ammonium acetate pH 6.6) acetonitrile, 66:34% v/v (for a representative compound of the invention) at a flow rate of 1 ml/min, measured at λmax 254 nm. Independently prepared analytical standards and quality control samples were analyzed with each set of unknown samples.

[10] = tested on: Staphylococcus aureus ATCC 25923; test: MIC test (agar dilution); format: cell-based; settings: Mueller Hinton agar, 24 h at 35° C.
[11] = tested on: Streptococcus group G ATCC 12394; test: MIC test (agar dilution); format: cell-based; settings: Mueller Hinton agar, 24 h at 35° C.
[12] = tested on: Enterococcus faecalis ATCC 29212; test: MIC test (agar dilution); format: cell-based; settings: Mueller Hinton agar, 24 h at 35° C.
[13] = tested on: Streptococcus group F ATCC 12392; test: MIC test (agar dilution); format: cell-based; settings: Mueller Hinton agar, 24 h at 35° C.
[14] = tested on: Staphylococcus aureus Mu-50 VISA; test: MIC test (agar dilution); format: cell-based; settings: Mueller Hinton agar, 24 h at 35° C.
[15] = tested on: Streptococcus pyogenes ATCC 25147; test: MIC test (agar dilution); format: cell-based; settings: Mueller Hinton agar, 24 h at 35° C.
[16] = tested on: Enterococcus faecium Efa-332 VRE; test: MIC test (agar dilution); format: cell-based; settings: Mueller Hinton agar, 24 h at 35° C.
[17] = tested on: Enterococcus faecium Efa-303; test: MIC test (agar dilution); format: cell-based; settings: Mueller Hinton agar, 24 h at 35° C.
[18] = tested on: Staphylococcus epidermidis STE-110 MRSE; test: MIC test (agar dilution); format: cell-based; settings: Mueller Hinton agar, 24 h at 35° C.
[19] = tested on: Streptococcus group C ATCC 12388; test: MIC test (agar dilution); format: cell-based; settings: Mueller Hinton agar, 24 h at 35° C.
[20] = tested on: Staphylococcus epidermidis STE-118; test: MIC test (agar dilution); format: cell-based; settings: Mueller Hinton agar, 24 h at 35° C.
[21] = tested on: Enterococcus faecalis Efe-406 VRE; test: MIC test (agar dilution); format: cell-based; settings: Mueller Hinton agar, 24 h at 35° C.

With `COCC1(O)CCN(c2c(F)cc(N3C[C@H](CNC(C)=O)OC3=O)cc2F)CC1` [Example-11, (5S)—N-{3-[3,5-difluoro-4-(4-hydroxy-(4-methoxymethyl)-piperidin-1yl)phenyl]-2-oxo-oxazolidin-5-ylmethyl}-acetamide] as the molecule, how does the MIC [1] read?
Its MIC is 4 µg/mL (≈ 9.68 µM).

What about the MIC [2] of the same molecule?
The MIC was 2 µg/mL (≈ 4.84 µM).

And the MIC [3]?
The MIC was 2 µg/mL (≈ 4.84 µM).

And the MIC [4]?
Its MIC is 4 µg/mL (≈ 9.68 µM).

And the MIC [5]?
The MIC was 2 µg/mL (≈ 4.84 µM).

What about the MIC [6] of the same molecule?
Its MIC is 2 µg/mL (≈ 4.84 µM).

And the MIC [7]?
Its MIC is 2 µg/mL (≈ 4.84 µM).

And the MIC [8]?
Its MIC is 2 µg/mL (≈ 4.84 µM).

What about the “Serum concentrations relative to the MIC value” ([9]; dog pharmacokinetic study, up to 24 h post dosing) of the same molecule?
The value was “significantly higher serum concentrations above the MIC value up to 24 h post dosing”.

What about the Serum concentration ([9]; time point 0.0 hr) of the same molecule?
The Serum concentration was 0.0.

What about the Serum concentration ([9]; time point 0.25 hr) of the same molecule?
The Serum concentration was 4.14.

And the Serum concentration ([9]; time point 0.5 hr)?
Its Serum concentration is 5.41.

What about the Serum concentration ([9]; time point 1.0 hr) of the same molecule?
Its Serum concentration is 8.76.

And the Serum concentration ([9]; time point 2.0 hr)?
The Serum concentration was 11.42.

What about the Serum concentration ([9]; time point 3.0 hr) of the same molecule?
Its Serum concentration is 10.97.

What about the Serum concentration ([9]; time point 4.0 hr) of the same molecule?
The Serum concentration was 10.37.

What about the Serum concentration ([9]; time point 5.0 hr) of the same molecule?
The Serum concentration was 8.81.

What about the Serum concentration ([9]; time point 6.0 hr) of the same molecule?
Its Serum concentration is 7.28 ± 2.14.

What about the Serum concentration ([9]; time point 8.0 hr) of the same molecule?
Its Serum concentration is 5.82 ± 1.58.

And the Serum concentration ([9]; time point 10.0 hr)?
Its Serum concentration is 4.50 ± 1.03.

And the Serum concentration ([9]; time point 12.0 hr)?
Its Serum concentration is 3.47 ± 1.25.

And the Serum concentration ([9]; time point 24.0 hr)?
Its Serum concentration is 2.19 ± 1.91.

What about the MIC [10] of the same molecule?
The MIC was 2 µg/mL (≈ 4.84 µM).

What about the MIC [11] of the same molecule?
The MIC was 2 µg/mL (≈ 4.84 µM).

What about the MIC [12] of the same molecule?
The MIC was 2 µg/mL (≈ 4.84 µM).

And the MIC [13]?
Its MIC is 2 µg/mL (≈ 4.84 µM).

What about the MIC [14] of the same molecule?
Its MIC is 2 µg/mL (≈ 4.84 µM).

What about the MIC [15] of the same molecule?
Its MIC is 2 µg/mL (≈ 4.84 µM).

And the MIC [16]?
Its MIC is 2 µg/mL (≈ 4.84 µM).

And the MIC [17]?
Its MIC is 4 µg/mL (≈ 9.68 µM).

And the MIC [18]?
The MIC was 1 µg/mL (≈ 2.42 µM).

And the MIC [19]?
The MIC was 2 µg/mL (≈ 4.84 µM).

What about the MIC [20] of the same molecule?
The MIC was 1 µg/mL (≈ 2.42 µM).

What about the MIC [21] of the same molecule?
Its MIC is 4 µg/mL (≈ 9.68 µM).

Source: patent publication US8217058B2, “Substituted piperidino phenyloxazolidinones” (Wockhardt Ltd., priority 2006, dated 2012)
